Test results from patent US5164411A, “Pyrethroid compositions” (priority 1991, dated 1992).
≈ marks a conversion by molar mass, not a printed value.

Columns and labels:
cabbage looper = assay: Field trials on lettuce, control of cabbage looper; format: in vivo, Trichoplusia ni
Source text: Field trials conducted on lettuce in California for evaluation of the control of cabbage looper consisted of a randomized complete block design of four replications per treatment. Applications were made to small plots with CO2 backpack sprayer using a minimum of 10 gallons per acre. Results were converted to percent control based on untreated check plots.

[1] = tested on: tobacco budworm (Heliothis virescens); assay: Foliar evaluation, tobacco budworm (TBW); format: in vivo; conditions: for LC50: Heliothis virescens, foliar, pinto beans, mortality at 48 hours
Description: (§1) Cypermethrin and sigma-cypermethrin were tested by foliar application at various concentrations in aqueous solutions containing 9.75% acetone and 0.25% octylphenoxypolyethoxyethanol. Insect species utilized included the cabbage looper (Trichoplusia ni), southern armyworm (Spodoptera eridania), Mexican bean beetle (Epilachna varivestis), tobacco budworm (Heliothis virescens), and corn earworm (Heliothis zea).
(§2) For all insects, pinto beans (Phaseolus vulgaris) plants were treated with the test solutions. The test solutions were applied with a sprayer to the upper and lower surfaces of the plant leaves to runoff. The plants were then allowed to dry and were severed at the base of the stem before being placed in cups. Ten second instar individuals of the appropriate insect species, except the tobacco budworm and corn earworm, were placed in each cup and the cup covered. Tests with the tobacco budworm and corn earworm used four replicates with each replicate containing five second instar insects. In all tests, mortality was read 48 hours later. The sigma-cypermethrin used in the foliar evaluations was the product of Example 2.

[2] = tested on: rainbow trout (Oncorhynchus mykiss); assay: Ninety-six-hour flow-through acute toxicity, rainbow trout; format: in vivo
Description: (§3) Ninety-six-hour flow-through acute toxicity studies of both cypermethrin and sigma-cypermethrin were conducted in the rainbow trout (Oncorhynchus mykiss) and in the sheepshead minnow (Cyprinodon variagatus) to determine the median-lethal-concentration (LC50) resulting from continuous exposure. For the rainbow trout the exposure medium was well water; for the sheepshead minnow, filtered seawater. Each group of 20 fish (10 per replicate aquarium) was exposed either to one of five concentrations of pyrethroid delivered in a diluter system in dimethylformamide (DMF), to 30 μL/L DMF in the exposure medium (solvent control), or to the exposure medium alone (control). Observations for mortality, morbidity, and other overt signs of toxicity were determined at prescribed intervals. Concentrations of the test materials were measured at the beginning and end of the exposure using a validated HPLC method. The cypermethrin isomer content (weight %) of the sigma-cypermethrin technical product used in this study was total isomers--88.2%, S-isomers--82%, cis/trans ratio--53/47.

[3] = tested on: sheepshead minnow (Cyprinodon variagatus); assay: Ninety-six-hour flow-through acute toxicity, sheepshead minnow; format: in vivo
Description: as §3

Heliothis sp. = assay: Field trials on cotton, control of Heliothis sp.; format: in vivo, Heliothis virescens and Heliothis zea; conditions: for Yield: seed cotton per acre
Source text: Plots were a minimum of 0.2 acres, and all applications were by commercial ground equipment with a minimum of 10 gallons total spray solution per acre. The cypermethrin isomer content (weight %) of the several sigma-cypermethrin technical products used in the field trials were as follows:
Analysis of the data was based on a seasonal average of multiple evaluations taken over a four to six week period (3-4 applications) in trials for control of Heliothis sp.

[4] = tested on: corn earworm (Heliothis zea); assay: Foliar evaluation, corn earworm (CEW); format: in vivo; conditions: for LC50: Helicoverpa zea, foliar, pinto beans, mortality at 48 hours
Description: as §1, §2

Teratology = format: in vivo, Sprague-Dawley rat; conditions: rat, po; gavage in corn oil, once daily, gestation days 6 through 15; read-out: NOEL
Description: (§4) These tests were conducted in compliance with EPA guideline 83-3 for the purpose of determining the effects of the test materials on pregnancy and in utero development. The test materials were administered via gavage in corn oil once daily to female Sprague-Dawley rats on days 6 through 15 of presumed gestation. There were 25 animals per dose group. Dosages of 0, 17.5, 37.5, and 75 mg/kg for cypermethrin and 0, 5, 12.5, 25, and 35 mg/kg for sigma-cypermethrin were administered. The cypermethrin isomer content (weight %) of the sigma-cypermethrin technical product used in this study was total isomers--89.1%, S-isomers--82%, cis/trans ratio--51/49. The control animals (0 mg/kg) received corn oil during the treatment period. All dosages were adjusted daily on the basis of body weights.
(§5) Daily observations of the rats were made during the dosage and postdosage periods. On gestation day 20 to 21 the rats were sacrificed for examination of their uterine contents, including the number of live and dead fetuses and the number of resorptions. Fetuses were subsequently examined for malformations.

[5] = tested on: female Sprague-Dawley rats; assay: Teratology; format: in vivo, Sprague-Dawley rat; conditions: for embryotoxic or teratogenic effect: at any dose
Description: as §4, §5

[6] = Year 1, 0.022 lb ai/A, seasonal mean of 3 trials (MS, LA)
[7] = Year 1, 0.03 lb ai/A, seasonal mean of 3 trials (MS, LA)
[8] = Year 2, 0.026 lb ai/A, seasonal mean of 4 trials (MS, LA)
[9] = Year 3, 0.013 lb ai/A, seasonal mean of 6-8 trials (MS, LA, AL, GA)
[10] = Year 3, 0.026 lb ai/A, seasonal mean of 6-8 trials (MS, LA, AL, GA)
[11] = Year 3, 0.039 lb ai/A, seasonal mean of 6-8 trials (MS, LA, AL, GA)
[12] = Year 1, 0.06 lb ai/A, seasonal mean of 3 trials (MS, LA)
[13] = Year 2, 0.06 lb ai/A, seasonal mean of 4 trials (MS, LA)
[14] = Year 3, 0.06 lb ai/A, seasonal mean of 6-8 trials (MS, LA, AL, GA)

CC1(C)C(C=C(Cl)Cl)C1C(=O)O[C@H](C#N)c1cccc(Oc2ccccc2)c1 (mixture of isomers) [sigma-cypermethrin, (S)(cyano)(3-phenoxyphenyl)methyl cis/trans-3-(2,2-dichloroethenyl)-2,2-dimethylcyclopropanecarboxylate]
% Cabbage Looper Control (cabbage looper; Year 1, 0.026 lb ai/A, 3 DAT, average of 2 trials (CA)): 83%
% Cabbage Looper Control (cabbage looper; Year 1, 0.026 lb ai/A, 7 DAT, average of 2 trials (CA)): 90%
% Cabbage Looper Control (cabbage looper; Year 2, 0.013 lb ai/A, 3 DAT, 1 trial (CA)): 98%
% Cabbage Looper Control (cabbage looper; Year 2, 0.013 lb ai/A, 7 DAT, 1 trial (CA)): 71%
% Cabbage Looper Control (cabbage looper; Year 2, 0.026 lb ai/A, 3 DAT, 1 trial (CA)): 98%
% Cabbage Looper Control (cabbage looper; Year 2, 0.026 lb ai/A, 7 DAT, 1 trial (CA)): 91%
% Cabbage Looper Control (cabbage looper; Year 2, 0.039 lb ai/A, 3 DAT, 1 trial (CA)): 100%
% Cabbage Looper Control (cabbage looper; Year 2, 0.039 lb ai/A, 7 DAT, 1 trial (CA)): 98%
LC50 [1]: 4.4 µg/mL
Relative Potency ([1]; vs cypermethrin, TBW): 1.7
ratio of the cypermethrin LC50 to the sigma-cypermethrin LC50 [2]: 1.3
ratio of the cypermethrin LC50 to the sigma-cypermethrin LC50 [3]: 1.64
% Hel. Live Larv. (Heliothis sp.; [6]): 10%
% Hel. Sq. Dam. (Heliothis sp.; [6]): 9%
Yield (Heliothis sp.; Year 1, 0.022 lb ai/A, 3 trials (MS, LA)): 2828 lb SC/A
% Hel. Live Larv. (Heliothis sp.; [7]): 8%
% Hel. Sq. Dam. (Heliothis sp.; [7]): 9%
Yield (Heliothis sp.; Year 1, 0.03 lb ai/A, 3 trials (MS, LA)): 2795 lb SC/A
% Hel. Live Larv. (Heliothis sp.; [8]): 3%
% Hel. Sq. Dam. (Heliothis sp.; [8]): 3%
% Hel. Live Larv. (Heliothis sp.; [9]): 6%
% Hel. Sq. Dam. (Heliothis sp.; [9]): 3%
Yield (Heliothis sp.; Year 3, 0.013 lb ai/A, 6-8 trials): 2818 lb SC/A
% Hel. Live Larv. (Heliothis sp.; [10]): 5%
% Hel. Sq. Dam. (Heliothis sp.; [10]): 4%
Yield (Heliothis sp.; Year 3, 0.026 lb ai/A, 6-8 trials): 2778 lb SC/A
% Hel. Live Larv. (Heliothis sp.; [11]): 5%
% Hel. Sq. Dam. (Heliothis sp.; [11]): 3%
Yield (Heliothis sp.; Year 3, 0.039 lb ai/A, 6-8 trials): 2692 lb SC/A
LC50 [4]: 3.9 µg/mL
Relative Potency ([4]; vs cypermethrin, CEW): 1.9
NOAEL (Teratology): 12.5 mg/kg
embryotoxic or teratogenic effect [5]: no embryotoxic or teratogenic effect
amount required to show an effect on rats relative to that expected from effect on insects ([5]; teratology): 1.4 times

CC1(C)C(C=C(Cl)Cl)C1C(=O)OC(C#N)c1cccc(Oc2ccccc2)c1 (centres unmarked) [cypermethrin, (cyano)(3-phenoxyphenyl)methyl 3-(2,2-dichloroethenyl)-2,2-dimethylcyclopropanecarboxylate, reference compound]
% Cabbage Looper Control (cabbage looper; Year 1, 0.06 lb ai/A, 3 DAT, average of 2 trials (CA)): 61%
% Cabbage Looper Control (cabbage looper; Year 1, 0.06 lb ai/A, 7 DAT, average of 2 trials (CA)): 78%
% Cabbage Looper Control (cabbage looper; Year 2, 0.06 lb ai/A, 3 DAT, 1 trial (CA)): 94%
% Cabbage Looper Control (cabbage looper; Year 2, 0.06 lb ai/A, 7 DAT, 1 trial (CA)): 81%
LC50 [1]: 7.3 µg/mL (≈ 17.5 µM)
% Hel. Live Larv. (Heliothis sp.; [12]): 9%
% Hel. Sq. Dam. (Heliothis sp.; [12]): 9%
Yield (Heliothis sp.; Year 1, 0.06 lb ai/A, 3 trials (MS, LA)): 2641 lb SC/A
% Hel. Live Larv. (Heliothis sp.; [13]): 2%
% Hel. Sq. Dam. (Heliothis sp.; [13]): 3%
% Hel. Live Larv. (Heliothis sp.; [14]): 4%
% Hel. Sq. Dam. (Heliothis sp.; [14]): 3%
Yield (Heliothis sp.; Year 3, 0.06 lb ai/A, 6-8 trials): 2675 lb SC/A
LC50 [4]: 7.3 µg/mL (≈ 17.5 µM)
NOAEL (Teratology): 17.5 mg/kg
embryotoxic or teratogenic effect [5]: no embryotoxic or teratogenic effect
